Data: patent US12410143B2, “Therapeutic inhibitors of the reverse mode of ATP synthase” (priority 2017, dated 2025)
pEC50: −log10 of the molar value. Entries after “also recorded” stand apart in the source; their conditions may differ. Like-named read-outs stand apart in the source and are kept apart here.

How the values were obtained:
[1] = rats, cited from earlier work
F1F0 ATP hydrolase [2] = target: T1, F1F0 ATP hydrolase (Bos taurus, UniProt P00829+P19483); conditions: cited from earlier work
T1 construct: in NADH-linked and NADPH-linked sub-mitochondrial (SMP) assays respectively; host or cells: sub-mitochondrial particles (SMPs)

F1F0 ATP hydrolase [3] = target: T1, F1F0 ATP hydrolase; assay: NADH-linked sub-mitochondrial (SMP) assay of F1F0 ATP hydrolysis; type: biochemical, bovine; conditions: NADH-linked and NADPH-linked SMP assays [5-6]
Source text: For example, by separately assaying (in space and/or time) the compounds's effect upon ATP synthesis and ATP hydrolysis by ATP synthase (in its entirety or, less preferably, a component part of it). Then comparing these assay results. The greater the inhibition of reverse vs. forward mode, the more preferred this compound is for anti-cancer use. A further method is by screening/seeking compounds that inhibit ATP hydrolysis more than synthesis in submitochondrial particles (SMPs). ATP hydrolysis can be assayed by (non-limiting example) a spectroscopic assay for NADH fluorescence that incubates the SMPs with pyruvate kinase and lactate dehydrogenase enzymes (assay well-known to those of the art). ATP synthesis can be assayed by (non-limiting example) a spectroscopic assay for NADPH fluorescence that incubates the SMPs with hexokinase and glucose-6-phosphate dehydrogenase enzymes (assay well-known to those of the art). These assays are reported in any one of [5, 7, 8, 11, 12, 13, 36], and/or as referenced therein, all of which are herein incorporated in their entirety.
Compounds from, selected as specific anti-cancer therapeutics by the invention of this disclosure, selected because they inhibit the reverse, more than the forward, mode of ATP synthase. EC50 and IC50 used interchangeably. […]

NCI-60 cancer cell lines [4] = assay: NCI-60 one-dose in vitro assay; type: cell-based, human
Source text: FIGS. 1, 2, 3, 4, 5, 6 show results from the NCI-60 one-dose in vitro assay at the Developmental Therapeutics Program (DTP), at the National Cancer Institute (NCI, Bethesda, MD, USA). Its protocol is well known to those of the art, and it tests the effect, if any, of a test compound on the growth/survivability of a cancer cell line as compared to the no compound control. […] However, a constant is that this 59 always has representative cell lines from leukemia, melanoma and cancers of the lung, colon, brain, ovary, breast, prostate and kidney. In a one-dose NCI compound test report, NCI report a number for each cell line, which they call “Growth Percent”, which is its growth relative to the no-compound control, and relative to the time zero number of cells. This reported parameter allows detection of both growth inhibition (values between 0 and 100) and lethality (values less than 0). For example, an NCI “Growth Percent” value of 100 means no growth inhibition. Value of 40 means 60% growth inhibition. Value of 0 means no net growth over the course of the experiment. Value of −40 means 60% lethality. Value of −100 means all cells are dead. I don't present NCI one-dose data in this original format. Instead, if the NCI “Growth Percent” value for a cell is positive, it is manipulated: [100 minus this original NCI-60 “Growth Percent” data point], to yield the percentage “Growth Inhibition”. If the original NCI “Growth Percent” value for a cell is negative, it is made positive to be the percentage of original cancer cells (at time zero) killed: “Percentage Killed” {and in these cases, of course, all growth has been inhibited, so percentage “Growth Inhibition” is then specified to be 100% for this cancer cell line}. In my one-dose figures, “Growth Inhibition” (0-100%) is presented on the x-axis and, if applicable, “Percentage Killed” (0-100%) further along on the x-axis. The latter is applicable when there is not just cancer growth inhibition but a reduction in the number of cancer cells from the start time i.e. when the compound is not merely slowing cancer growth, but is actively reducing the number of cancer cells from the starting number. In cases where there is only growth inhibition, only “Growth inhibition” is presented on the x-axis.

NCI-60 cancer cell lines [5] = assay: NCI-60 five-dose in vitro assay; type: cell-based, human; conditions: mean of all 59 cell lines
Source text: The compounds of this invention act by a distinctly different mechanism, upon cancer cells, than oligomycin. […] The degree of (dis)similarity can be measured using the COMPARE algorithm, which employs a Pearson correlation coefficient. […] This mechanistic distinction is vital because polyketide F1F0 ATP synthase inhibitors are poisonous to normal cells, which means they fail in cancer xenograft mouse experiments and are without clinical utility.
Results from the NCI-60 five-dose in vitro assay at the Developmental Therapeutics Program (DTP), at the National Cancer Institute (NCI, Bethesda, MD, USA). In this assay, which is well known to those of the art, a compound is tested, in vitro, against 59 different cancer cell lines, sourced from 9 different tissue types, across 5 different concentrations. On the y-axis is the aforementioned “Growth Percentage” parameter used by NCI, which is growth relative to the no-compound control, and relative to the time zero number of cells. This parameter allows detection of both growth inhibition (values between 0 and 100) and lethality (values less than 0). […] Each cancer cell line has a GI50 value and the “mean GI50” of all 59 cell lines can be calculated.

ex vivo rat heart = conditions: 10 μM [11]; cited from earlier work
F1F0-ATP synthesis = target: T2, F1F0-ATP synthesis (Homo sapiens, UniProt P06576+P25705); conditions: [13]; cited from earlier work
T2 construct: BTB06584 potency information (isn't an EC50) is from a whole cell study [13]

mouse cortical neurons = conditions: 100 μM [13]; cited from earlier work
F1F0-ATP hydrolysis = target: T3, F1F0-ATP hydrolysis (Homo sapiens, UniProt P06576+P25705); conditions: cited from earlier work
T3 construct: BTB06584 potency information (isn't an EC50) is from a whole cell study [13]

[6] = test system: HL-1 cardiac muscle cell line; conditions: 3 μM; HL-1 cells; data from [12]; cited from earlier work
[7] = test system: xenograft mouse models of cancer; conditions: data in [16]; cited from earlier work
[8] = cited from earlier work
[9] = Formula (I) examples, SMP data from [5], read-out: EC50 F1F0 ATP hydrolase

For `N#Cc1cccc(C(=O)/N=C(\Nc2ccc(Cl)cc2)N[C@H](Cn2ccnc2)c2ccc(Cl)cc2Cl)c1`, the Cmax [1] is listed as 21 µM, the volume of distribution [1] is listed as 2.37 L/kg and the half-life in blood ([1]; intravenously applied drug) is listed as 2.1 h. For the same molecule, the orally bioavailable ([1]; polyethyleneglycol:water:ethanol, 1:1:1) was 47%, the pEC50 (F1F0 ATP hydrolase [2]; Best Mode structure, SMP assay [5-6], read-out: EC50 against F1F0ATP hydrolysis) was 7.74 and the “[EC50 F1F0 ATP synthesis/EC50 F1F0 ATP hydrolysis] ratio” value (F1F0 ATP hydrolase [3]) was > 5,556.

For `N#CN=C(Nc1cccc(Cl)c1Cl)NC(Cn1ccnc1)c1ccc(Cl)cc1Cl` (centres unmarked) [2,3-Cl2/CN], the pEC50 (F1F0 ATP hydrolase [2]; [9]) is given as 5.60.

For `N#CN=C(Nc1cccc(Cl)c1)NC(Cn1ccnc1)c1ccc(Cl)cc1Cl` (centres unmarked) [3-CL/CN], the pEC50 (F1F0 ATP hydrolase [2]; [9]) is given as 5.04.

For `CC(=O)Nc1ccc(S(=O)(=O)N2Cc3ccccc3N(Cc3cnc[nH]3)C(CCc3ccccc3)C2)cc1` (centres unmarked) [4-(AcNH)—Ph/SO2/5-yl], the pEC50 (F1F0 ATP hydrolase [2]; Formula (II) examples, SMP data from [8], read-out: EC50F1F0ATP hydrolase) is given as 5.53.

In the case of `N#Cc1ccc(C(=O)N=C(Nc2ccc(Cl)cc2)NC(Cn2ccnc2)c2ccc(Cl)cc2Cl)cc1` (centres unmarked) [4-Cl/C(═O)4-CN—Ph], the pEC50 (F1F0 ATP hydrolase [2]; [9]) is given as 6.55.

In the case of `CCC(=O)N=C(Nc1ccc(Cl)cc1)NC(Cn1ccnc1)c1ccc(Cl)cc1Cl` (centres unmarked) [4-Cl/C(═O)Et], the pEC50 (F1F0 ATP hydrolase [2]; [9]) is given as 5.64.

For `N#CN=C(Nc1ccc(Cl)cc1)NC(Cn1ccnc1)c1ccc(Cl)cc1Cl` (centres unmarked) [4-Cl/CN], the pEC50 (F1F0 ATP hydrolase [2]; [9]) is given as 5.06.

In the case of `N#Cc1cccc(C(=O)/N=C(\Nc2ccc(Cl)cc2)N[C@@H](Cn2ccnc2)c2ccc(Cl)cc2Cl)c1` [6a], the “inhibits F1F0-ATP hydrolysis” value (F1F0 ATP hydrolase [2]; stereoisomers of 19a [5-6]) is given as “not” and the “anti-cancer activity (NCI one-dose assay)” value (shortened to “anti-cancer activity”) (NCI-60 cancer cell lines [4]; 10 μM) is given as “exerted anti-cancer activity”.

For `N#Cc1cccc(C(=O)/N=C(\Nc2ccc(Cl)cc2)NC(Cn2ccnc2)c2ccc(Cl)cc2Cl)c1` (centres unmarked) [19a], the “anti-cancer activity” value (NCI-60 cancer cell lines [4]; 10 μM) was “more anti-cancer activity than BMS-199264”.

With `CC1(C)Oc2ccc(S(=O)(=O)N3CCCCC3)cc2[C@@H](N(Cc2ncc[nH]2)c2ccc(Cl)cc2)[C@@H]1O.Cl` [BMS-199264 hydrochloride] the “anti-cancer activity” value (NCI-60 cancer cell lines [4]; 10 μM) was “Anti-cancer activity”, the “anti-cancer activity” value (NCI-60 cancer cell lines [4]; 100 μM) was “Anti-cancer activity” and the GI50 (NCI-60 cancer cell lines [5]) was 3.9 µM.

For `CC1(C)Oc2ccc(S(=O)(=O)N3CCCCC3)cc2[C@@H](N(Cc2ncc[nH]2)c2ccc(Cl)cc2)[C@@H]1O` [BMS-199264], the “anti-cancer activity” value (NCI-60 cancer cell lines [4]; 10 μM) is given as “exerts anti-cancer activity” and the “harm to normal cells (ex vivo rat heart)” value (ex vivo rat heart) is given as “does not harm ex vivo rat heart; also recorded: doesn't harm normal cells”.

For `O=C(Oc1cc(S(=O)(=O)c2ccccc2)ccc1[N+](=O)O)c1ccc(Cl)cc1` [BTB06584], the “inhibition of F1F0-ATP synthesis” value (F1F0-ATP synthesis) is given as “not inhibiting F1F0-ATP synthesis”, the “anti-cancer activity” value (NCI-60 cancer cell lines [4]; 10 μM) is given as “No anti-cancer activity and none” and the “anti-cancer activity” value (NCI-60 cancer cell lines [4]; 100 μM) is given as “exerts anti-cancer activity”. For the same molecule, the “harm to normal cells (mouse cortical neurons)” value (mouse cortical neurons) was “isn't harmful to normal cells”, the “inhibitory potency for F1F0-ATP hydrolysis” value (F1F0-ATP hydrolysis; 10 μM [13]) was “none” and the “concentration required for inhibiting F1F0-ATP hydrolysis” value (F1F0-ATP hydrolysis; whole cell study [13]) was at least 100 µM.

In the case of `CC[C@H]1/C=C/C=C/C[C@@H](C)[C@H](O)[C@@](C)(O)C(=O)[C@@H](C)[C@H](O)[C@@H](C)C(=O)[C@@H](C)[C@H](O)[C@@H](C)/C=C/C(=O)O[C@@H]2[C@H](C)[C@H](CC1)O[C@@]1(O[C@@H](C[C@@H](C)O)[C@@H](C)CC1=O)[C@H]2C` [Oligomycin B], the O2 consumption change [6] is given as −40%.

In the case of `CC[C@H](O)C[C@@H]1O[C@]2(CC[C@H]1C)C[C@@H]1OC(=O)/C=C/[C@](C)(O)[C@@H](O)[C@H](C)[C@@H](O)[C@@H](O[C@H]3C[C@@H](OC)[C@@H](O)[C@@H](C)O3)[C@H](O)[C@](C)(O)CCC/C=C\[C@H]3C[C@H](C)CO[C@@]3(O)C[C@H](O2)[C@H]1C` [cytovaricin], the “efficacy in xenograft mouse models of cancer” value [7] is listed as “don't work”.

In the case of `CC[C@H]1/C=C/C=C/C[C@@H](C)[C@H](O)[C@@](C)(O)C(=O)[C@@H](C)[C@H](O)[C@@H](C)C(=O)[C@@H](C)[C@H](O)[C@@H](C)/C=C/C(=O)O[C@@H]2[C@H](C)[C@H](CC1)O[C@]1(CC[C@H](C)[C@H](C[C@@H](C)O)O1)[C@H]2C` [oligomycin], the “inhibition of F1F0 ATP hydrolysis versus F1F0 ATP synthesis” value (F1F0 ATP hydrolase [2]; SMP assays [11]) is given as “inhibits F1F0 ATP hydrolysis less than F1F0 ATP synthesis”, the “time within which healthy rats are killed” value ([8]; 1 mg/kg, n=10) is given as at most 48 h and the LD33 ([8]; rats) is given as 0.5 mg/kg.

In the case of `CC[C@@H](O)C[C@H]1CCC[C@@]2(C[C@@H]3OC(=O)/C=C/[C@@](C)(O)[C@@H](O)[C@H](C)[C@@H](O)[C@H](O[C@H]4CC[C@H](N(C)C)[C@H](C)O4)[C@@H](O)[C@](C)(O)CCCCC/C=C/[C@@H]4CC(C)(C)O[C@@]4(O)C[C@H](O2)[C@H]3C)O1` [ossamycin], the “efficacy in xenograft mouse models of cancer” value [7] is listed as “don't work”.
